# Laboratory results: patent US20080255175A1, “Anti-cancer agents, compositions and methods of treating cancers” (priority 2007, published 2008)
# How the values were obtained:
# [1] = system: MCF-7, Human Breast; assay: Cell proliferation 96-welled in vitro MTT assay, MCF-7; type: cell-based; settings: MCF7, 72 hr incubation, triplicate
# Method: (§1) In vitro Efficacy: The Compounds were tested in a Cell Proliferation 96-welled in vitro MTT assay
# (§2) The tests were done in triplicate and the test samples included negative control, positive control and ACB compounds at several concentrations (10^−4 to 10^−8) in 0.4% DMSO/DW medium. The incubation time was 72 hr and the IC50 was calculated from the generated inhibition curves.
# [2] = system: HT-29, Human Colorectal; assay: Cell proliferation 96-welled in vitro MTT assay, HT-29; type: cell-based; settings: 72 hr incubation, triplicate
# Method: as §1, §2
# [3] = system: NCI-H460 human non-small cell lung cancer; assay: NCI-H460 human non-small cell lung cancer nude mice xenograft model; type: in vivo, BALB/c nude mice; settings: for Tumor Weight / Tumor Inhibitory Growth Weight: after four weeks; for Tumor Weight: twice every week, model 3.08 ± 0.88; for effect on nude mice xenograft NCI-H460 human non-small cell lung cancer growth (in words): mouse, in vivo; for dose dependence of anticancer effect (in words): two dosages per compound
# Text: In this study the NCI-H460 human non-small cell lung cancer nude mice xenograft model was established and applied for in vivo anti-cancer activity evaluation of three compounds of the invention.
# (§3) BALB/c nude mice, were provided by Shanghai SLAC Experimental Animal Co., Ltd. (Experimental animal production license:SCXK (Shanghai) 2003-0003; Experimental animal application license:SYXK (Jiangsu) 2002-0053). The ages of the mice was 35-40 days; their body weight was 18-22 g; half of the mice were female and the other half were male. Eight nude mice were used per group.
# NCI-H460 human non-small cell lung cancer nude mice xenograft model was established by s.c. injection of 1×10^6 NCI-H460 cells into nude mice axilla. After formation of tumor the xenograft was passaged for three generations in nude mice.
# (§4) The tumor growing in Log phase was isolated from nude mice and sliced into 1.5 mm^3 particles. Under SPF conditions, the tumor particles were inoculated s.c. of nude mice right axilla. The xenografted tumor was measured the length and width by vernier caliper. Nude mice were randomly divided into eight groups when the bearing tumor reached 100-300mm^3 volume. Tumor length and width were measured twice every week to dynamic evaluate the anticancer activity of the tested compounds. Compound 1 was given by i.p. twice every week, compound 2 was given by i.v. twice every week, compound 3 was given by i.v. twice every week, control Topotecan was given by i.v. twice every week. In model group saline was give i.v. twice every week. After four weeks drug administration, nude mice were sacrificed and tumor was isolated by surgery for weight detection.
# Tumor volume (TV) was calculated by the following formula: TV=1/2×a×b2 a and b represent length and width, respectively.
# [4] = system: P388, Mouse Lymphoma; assay: Cell proliferation 96-welled in vitro MTT assay, P388; type: cell-based; settings: 72 hr incubation, triplicate
# Method: as §1, §2
# [5] = Body weight of nude mice in the NCI-H460 xenograft study; type: in vivo, BALB/c nude mice; settings: after four weeks, twice every week, model 22.07 ± 1.68
# Text: as §3, §4
# [6] = system: Lewis Lung, mouse lung; assay: Cell proliferation 96-welled in vitro MTT assay, Lewis Lung; type: cell-based; settings: Lewis lung carcinoma, 72 hr incubation, triplicate
# Method: as §1, §2
# [7] = 0.5 week, Dosage 1: topotecan 2, Compound 1 0.625, Compound 2 5, Compound 3 1.5625 mg/kg, X ± SD, n = 8
# [8] = 0.5 week, Dosage 2: Compound 1 0.3125, Compound 2 2.5, Compound 3 0.78125 mg/kg, X ± SD, n = 8
# [9] = 1 week, Dosage 1: topotecan 2, Compound 1 0.625, Compound 2 5, Compound 3 1.5625 mg/kg
# [10] = 1 week, Dosage 2: Compound 1 0.3125, Compound 2 2.5, Compound 3 0.78125 mg/kg
# [11] = 1.5 weeks, Dosage 1: topotecan 2, Compound 1 0.625, Compound 2 5, Compound 3 1.5625 mg/kg
# [12] = 1.5 weeks, Dosage 2: Compound 1 0.3125, Compound 2 2.5, Compound 3 0.78125 mg/kg
# [13] = 2 weeks, Dosage 1: topotecan 2, Compound 1 0.625, Compound 2 5, Compound 3 1.5625 mg/kg
# [14] = 2 weeks, Dosage 2: Compound 1 0.3125, Compound 2 2.5, Compound 3 0.78125 mg/kg
# [15] = 2.5 weeks, Dosage 1: topotecan 2, Compound 1 0.625, Compound 2 5, Compound 3 1.5625 mg/kg
# [16] = 2.5 weeks, Dosage 2: Compound 1 0.3125, Compound 2 2.5, Compound 3 0.78125 mg/kg
# [17] = 3 weeks, Dosage 1: topotecan 2, Compound 1 0.625, Compound 2 5, Compound 3 1.5625 mg/kg
# [18] = 3 weeks, Dosage 2: Compound 1 0.3125, Compound 2 2.5, Compound 3 0.78125 mg/kg
# [19] = 3.5 weeks, Dosage 1: topotecan 2, Compound 1 0.625, Compound 2 5, Compound 3 1.5625 mg/kg
# [20] = 3.5 weeks, Dosage 2: Compound 1 0.3125, Compound 2 2.5, Compound 3 0.78125 mg/kg
# [21] = 4 weeks, Dosage 1: topotecan 2, Compound 1 0.625, Compound 2 5, Compound 3 1.5625 mg/kg
# [22] = 4 weeks, Dosage 2: Compound 1 0.3125, Compound 2 2.5, Compound 3 0.78125 mg/kg
# [23] = Dosage 1: topotecan 2 i.v., Compound 1 0.625 i.p., Compound 2 5 i.v., Compound 3 1.5625 i.v. (mg/kg)
# [24] = Dosage 2: Compound 1 0.3125 i.p., Compound 2 2.5 i.v., Compound 3 0.78125 i.v. (mg/kg)
# [25] = higher dosage: compound 3 1.5625 mg/kg i.v., compound 2 5 mg/kg i.v., compound 1 0.625 mg/kg i.p., topotecan 2 mg/kg i.v.
# [26] = lower dosage: compound 3 0.78125 mg/kg i.v., compound 2 2.5 mg/kg i.v., compound 1 0.3125 mg/kg i.p.
SMILES,IC50 [1] [µM],IC50 [2] [µM],"Tumor Volume [3, 7] [mm3]","Tumor Volume [3, 8] [mm3]","Tumor Volume [3, 9] [mm3]","Tumor Volume [3, 10] [mm3]","Tumor Volume [3, 11] [mm3]","Tumor Volume [3, 12] [mm3]","Tumor Volume [3, 13] [mm3]","Tumor Volume [3, 14] [mm3]","Tumor Volume [3, 15] [mm3]","Tumor Volume [3, 17] [mm3]","Tumor Volume [3, 19] [mm3]","Tumor Volume [3, 21] [mm3]","Tumor Weight [3, 23] [g]","Tumor Inhibitory Growth Weight [3, 23]","inhibitory rate [3, 25] [%]",IC50 [4] [µM],"Ending Body Weight [5, 23] [g]",IC50 [6] [µM],further results
CCC1(OC(=O)CNC(=O)/C=C\C(=O)O)C(=O)OCc2c1cc1n(c2=O)Cc2cc3ccccc3nc2-1 (stereo not shown) [Compound 1],20.4,44.3,220.9,194.9,504.2,560.8,706.7 ± 450.3,766.0 ± 480.3,1104.7 ± 759.6,1245.7 ± 585.6,1367.1 ± 880.2,1566.7 ± 867.8,1798.2 ± 767.2,2088.1,1.77 ± 0.73,42.5,42.5,10.9,18.86 ± 1.60,6.34,"Tumor Volume [3, 16]: 1459.9 ± 793.3 mm3; Tumor Volume [3, 18]: 1638.9 ± 827.1 mm3; Tumor Volume [3, 20]: 1909.7 ± 464.4 mm3; Tumor Volume [3, 22]: 2209.8 mm3; Tumor Weight [3, 24]: 1.85 ± 0.75 g; Tumor Inhibitory Growth Weight [3, 24]: 39.9; inhibitory rate [3, 26]: 39.9%; effect on nude mice xenograft NCI-H460 human non-small cell lung cancer growth (in words) [3]: could inhibit; dose dependence of anticancer effect (in words) [3]: dose-dependent anticancer effect; Ending Body Weight [5, 24]: 18.59 ± 1.46 g"
CCCS(=O)(=O)Oc1ccc2nc3c(cc2c1CN(C)C)Cn1c-3cc2c(c1=O)COC(=O)C2(CC)OC(=O)CNC(=O)/C=C\C(=O)O (stereo not shown) [Compound 2],30.8,50.8,205.2,182.6,413.8,472.2,602.1 ± 339.3,706.8 ± 360.0,733.7 ± 497.0,861.1 ± 523.9,950.0 ± 578.0,1147.2 ± 598.0,1632.9 ± 752.6,1639.4,1.55 ± 0.51,49.7,49.7,10.6,18.93 ± 1.49,12.8,"Tumor Volume [3, 16]: 1084.9 ± 536.3 mm3; Tumor Volume [3, 18]: 1269.1 ± 644.1 mm3; Tumor Volume [3, 20]: 1841.8 ± 859.5 mm3; Tumor Volume [3, 22]: 2029.4 mm3; Tumor Weight [3, 24]: 1.75 ± 0.90 g; Tumor Inhibitory Growth Weight [3, 24]: 43.2; inhibitory rate [3, 26]: 43.2%; effect on nude mice xenograft NCI-H460 human non-small cell lung cancer growth (in words) [3]: could inhibit; dose dependence of anticancer effect (in words) [3]: dose-dependent anticancer effect; Ending Body Weight [5, 24]: 17.82 ± 1.06 g"
CC[C@@]1(OC(=O)CNC(=O)/C=C\C(=O)O)C(=O)OCc2c1cc1n(c2=O)Cc2cc3c(CN(C)C)c(OS(=O)(=O)C(C)C)ccc3nc2-1 [Compound 3],9.79,14.3,237.9,211.8,392.9,455.2,547.2 ± 390.0,624.6 ± 371.5,719.6 ± 315.8,795.4 ± 389.0,958.4 ± 486.2,1093.2 ± 692.2,1400.4 ± 670.6,1588.3,1.36 ± 0.50,55.8,55.8,0.0847,19.63 ± 0.77,0.929,"Tumor Volume [3, 16]: 999.8 ± 562.9 mm3; Tumor Volume [3, 18]: 1291.5 ± 564.4 mm3; Tumor Volume [3, 20]: 1553.2 ± 706.3 mm3; Tumor Volume [3, 22]: 1908.5 mm3; Tumor Weight [3, 24]: 1.65 ± 0.86 g; Tumor Inhibitory Growth Weight [3, 24]: 46.4; inhibitory rate [3, 26]: 46.4%; effect on nude mice xenograft NCI-H460 human non-small cell lung cancer growth (in words) [3]: could inhibit; dose dependence of anticancer effect (in words) [3]: dose-dependent anticancer effect; Ending Body Weight [5, 24]: 18.42 ± 1.04 g"
"CC[C@@]1(O)C(=O)OCc2c1cc1n(c2=O)Cc2cc3c(CN(C)C)c(O)ccc3nc2-1 [topotecan, Topotecan, reference compound]",22.2,22.9,209.6,,574.0,,759.8 ± 419.9,,933.1 ± 496.8,,1220.7 ± 611.4,1273.3 ± 685.1,1413.0 ± 717.0,1639.9,1.58 ± 0.74,48.7,48.7,18.5,17.32 ± 1.18,11,
